We go through five molecules from paper PMC8880098, “Synthesis, Antibacterial Evaluation, and Computational Studies of a Diverse Set of Linezolid Conjugates” (Pharmaceuticals, 2022).

≈ marks a conversion by molar mass, not a printed value. Like-named read-outs stand apart in the source and are kept apart here.

Data set [1] has as its system Staphylococcus aureus ATCC 6538. The arrangement: method as in PMID 27025339. To be noted: reference fluoroquinolones, cited from earlier work; for MIC (μmol), S. Aureus (ATCC 6538): value in parentheses.
Data set [2] deals with Pseudomonas aeruginosa ATCC 15692. The arrangement: method as in PMID 27025339. To be noted: reference fluoroquinolones, cited from earlier work; for MIC (μmol), P. Aeruginosa (ATCC 15692): value in parentheses.
In data set [3] the test system is Staphylococcus aureus ATCC 6538. Put plainly: microbe, parasite or virus in culture. On the set-up: species or system bacteria; Broth microdilution MIC in Mueller-Hinton broth, absorbance at 620 nm. The conditions noted are these: ATCC6538, 24 h, read-out: Observed MIC, uM (S. aureus). In outline: (§1)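 Broth microdilution in Mueller–Hinton broth per CLSI, inoculum about 2.5–3 × 10^4 cells/mL mixed 1:1 with compound, 24 h at 37 °C. Growth read by absorbance at 620 nm; MIC from dose–response, at least two runs in triplicate.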

In data set [4] the test system is Bacillus subtilis ATCC 6633. Put plainly: microbe, parasite or virus in culture. On the set-up: species or system bacteria; Broth microdilution MIC in Mueller-Hinton broth, absorbance at 620 nm. To be noted: ATCC6633, 24 h, read-out: Observed MIC, uM (B. subtilis). Put shortly: as §1
Data set [5] concerns Pseudomonas aeruginosa ATCC 15692. Description: Antibacterial MIC, microdilution susceptibility test (CLSI). In kind it is cell-based. Put shortly:
(§2)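 Broth microdilution per CLSI in Mueller–Hinton broth. Inoculum ~2.5–3 × 10^4 cells/mL, mixed 1:1 with compound (DMSO stocks diluted in water), incubated 37 °C for 24 h, growth read as absorbance at 620 nm. MIC from dose–response on selected compounds, at least two experiments in triplicate.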

Data set [6] relates to Escherichia coli ATCC 47076. The description is as above. The format is cell-based. Put shortly: as §2
The test system of data set [7] is Staphylococcus aureus ATCC 6538. The data set is described as above. The format is cell-based. The conditions noted are these: Staphylococcus aureus. In outline: as §2
The test system of data set [8] is Bacillus subtilis ATCC 6633. The description is as above. In kind it is cell-based. To be noted: Bacillus subtilis. Put shortly:
as §2

[9] abbreviates: ATCC15692, Mueller–Hinton broth, 37 °C, 24 h, read-out: MIC, μg/mL ± SE, P. Aeruginosa (ATCC 15692).
The mark [10] stands for this setting: ATCC15692, value in parentheses, read-out: MIC (μmol), P. Aeruginosa (ATCC 15692) (converted).
Setting [11] is: ATCC47076, Mueller–Hinton broth, 37 °C, 24 h, read-out: MIC, μg/mL ± SE, E. Coli (ATCC 47076).
Where [12] appears, read: ATCC47076, value in parentheses, read-out: MIC (μmol), E. Coli (ATCC 47076) (converted).
[13] abbreviates: ATCC6538, 24 h, Mueller–Hinton broth, 37 °C, 24 h, read-out: MIC, μg/mL ± SE, S. Aureus (ATCC 6538).
[14] abbreviates: ATCC6633, 24 h, Mueller–Hinton broth, 37 °C, 24 h, read-out: MIC, μg/mL ± SE, B. Subtilis (ATCC 6633).

For the molecule `CCn1cc(C(=O)O)c(=O)c2cc(F)c(N3CCNCC3)cc21` [Norfloxacin], in data set [1], the “MIC, μg/mL ± SE, S. Aureus (ATCC 6538)” value was 1250.0 ± 14.2 µg/mL (≈ 3910 µM) and the “MIC (μmol), S. Aureus (ATCC 6538)” value was 3914.3 µmol. Besides, in data set [2], the “MIC, μg/mL ± SE, P. Aeruginosa (ATCC 15692)” value is 4.8 ± 0.2 µg/mL (≈ 15 µM) and the “MIC (μmol), P. Aeruginosa (ATCC 15692)” value was 15.0 µmol.

As for `O=C(O)c1cn(C2CC2)c2cc(N3CCNCC3)c(F)cc2c1=O` [Ciprofloxacin], in data set [1], the “MIC, μg/mL ± SE, S. Aureus (ATCC 6538)” value was 1250.0 ± 9.6 µg/mL (≈ 3770 µM) and the “MIC (μmol), S. Aureus (ATCC 6538)” value is 3772.4 µmol. In addition, in [2], the “MIC, μg/mL ± SE, P. Aeruginosa (ATCC 15692)” value was 4.8 ± 0.5 µg/mL (≈ 14.5 µM) and the “MIC (μmol), P. Aeruginosa (ATCC 15692)” value is 14.5 µmol.

The melting point is the temperature, or range, at which the solid turns liquid. As to `O=C(NC[C@H]1CN(c2ccc(N3CCOCC3)c(F)c2)C(=O)O1)c1ccccc1` [Compound 5a, (S)-N-((3-(3-Fluoro-4-morpholinophenyl)-2-oxooxazolidin-5-yl)methyl)benzamide], the melting point was 174 to 176 °C. Besides, the MIC in data set [3] amounted to 10 µM (≈ 4 µg/mL). Also, in data set [4], the MIC came to 2.5 µM (≈ 1 µg/mL). Also, the MIC in data set [5] (setting [9]) was found to be 32 ± 0.8 µg/mL. For the same molecule, in data set [5] (setting [10]), the MIC was 80.1 µM. The MIC in [6] (setting [11]) came to 32 ± 1.6 µg/mL. For the same molecule, the MIC in data set [6] (setting [12]) was 80.1 µM. Also, the MIC in data set [7] (setting [13]) was determined as 4 ± 0.2 µg/mL. The MIC in data set [7] (ATCC6538, as quoted in running text, read-out: MIC against S. aureus) lay within 9.34 to 10 µM. The MIC in data set [8] (setting [14]) was determined as 1 ± 0.1 µg/mL. Moreover, the MIC in data set [8] (ATCC6633, as quoted in running text, read-out: MIC against B. subtilis) was 2.33 to 2.5 µM.

Regarding `O=C(NC[C@H]1CN(c2ccc(N3CCOCC3)c(F)c2)C(=O)O1)c1cccc([N+](=O)[O-])c1Cl` [Compound 5f, (S)-2-Chloro-N-((3-(3-fluoro-4-morpholinophenyl)-2-oxooxazolidin-5-yl)methy-l)-3-nitrobenzamide], the melting point fell in the range of 200 to 202 °C. Besides, the MIC in data set [3] worked out at 16.7 µM (≈ 8 µg/mL). Besides, the MIC in [4] stood at 8.35 µM (≈ 4 µg/mL). The MIC in data set [5] (setting [9]) is 32 ± 1.4 µg/mL. For the same molecule, the MIC in data set [5] (setting [10]) was 66.8 µM. The MIC in [6] (setting [11]) was determined as 32 ± 0.6 µg/mL. Besides, the MIC in data set [6] (setting [12]) is 66.8 µM. Besides, in [7] (setting [13]), the MIC amounted to 8 ± 0.2 µg/mL. In addition, in [8] (setting [14]), the MIC came to 4 ± 0.3 µg/mL.

Molecule `C[C@H](NC(=O)OC(C)(C)C)C(=O)NC[C@H]1CN(c2ccc(N3CCOCC3)c(F)c2)C(=O)O1` [Compound 3g, Tert-butyl ((S)-1-((((S)-3-(3-fluoro-4-morpholinophenyl)-2-oxooxazolidin-5-yl)methyl)amino)-1-oxopropan-2-yl)carbamate] yielded a melting point of 71 to 72 °C. For the same molecule, the MIC in data set [3] amounted to 68.6 µM (≈ 32 µg/mL). For the same molecule, the MIC in data set [4] came out at 68.6 µM (≈ 32 µg/mL). The MIC in data set [5] (setting [9]) turned out to be 32 ± 1.2 µg/mL. Further, the MIC in data set [5] (setting [10]) is 68.6 µM. The MIC in data set [6] (setting [11]) turned out to be 32 ± 2.7 µg/mL. In addition, in [6] (setting [12]), the MIC was 68.6 µM. Moreover, the MIC in data set [7] (setting [13]) was 32 ± 1.5 µg/mL. In addition, the MIC in data set [8] (setting [14]) was 32 ± 2.4 µg/mL.
